Consider 1 compound from patent US20100130432A1, “Non-Natural Amino Acids and Neurotensin Analogues Thereof” (priority 2005, published 2010).

One experiment relates to rats. Nature of the experiment: d-Amphetamine induced hyperlocomotion / locomotor activity chambers. The experiment is classed as in vivo, rat. From the text: Sound- and light-attenuated locomotor cages are used to measure the ability of potential candidates to decrease d-amphetamine-induced hyperactivity.
d-Amphetamine induced hyperlocomotion. Experimentally I male Sprague-Dawley rats were housed as described above. Rats were handled for three days prior to testing to minimize experimenter induced hyperlocomotion on test day. For experiments, sound- and light-attenuated automated photocell beam activity chambers (AccuScan Instruments, Inc., Columbus, Ohio) were used to measure locomotion. Cages were connected to a VersaMax Analyzer (AccuScan) in conjunction with an IBM computer using VersaMax 1.80-0146 software (AccuScan) to record vertical and horizontal activity. Total activity values recorded were the sum of vertical and horizontal activity. […]
Rats were placed in the activity chambers for 30 minutes to habituate and establish baseline activity levels. Then, rats were removed and given an IP or oral dose of peptide (N=7) or saline (N=8) and returned to the chamber to establish the peptide's effect on spontaneous activity levels. About 30 minutes after administration, rats were removed and given an IP injection of d-amphetamine (1 mg/kg) or vehicle and returned to the chamber for a further 1 hr to assess the effect of the peptide on induced hyperlocomotion.
Chronic Testing Protocols.
Separate two-factor ANOVAs for DOSE X TIME were performed for each different time-phase of the assay. Phases for the IP dosing and oral dosing experiments consisted of habituation (time points 10-60), drug (time points 70-120), and amphetamine (time points 130-240).

Another experiment deals with NTR-1 (Homo sapiens, UniProt P30989). Description: Competitive NTR binding versus radiolabeled NT[8-13].
NTR-1, sequence (P30989 whole entry, species assumed): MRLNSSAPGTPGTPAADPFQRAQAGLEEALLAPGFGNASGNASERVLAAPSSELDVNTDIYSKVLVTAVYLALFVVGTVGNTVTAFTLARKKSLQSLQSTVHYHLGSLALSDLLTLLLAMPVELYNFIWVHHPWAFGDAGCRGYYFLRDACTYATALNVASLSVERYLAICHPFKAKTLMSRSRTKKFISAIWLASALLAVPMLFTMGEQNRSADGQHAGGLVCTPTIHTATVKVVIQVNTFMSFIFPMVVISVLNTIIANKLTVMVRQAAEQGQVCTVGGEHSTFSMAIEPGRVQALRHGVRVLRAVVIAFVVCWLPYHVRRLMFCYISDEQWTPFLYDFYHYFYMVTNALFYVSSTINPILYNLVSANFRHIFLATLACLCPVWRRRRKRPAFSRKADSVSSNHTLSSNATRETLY

Non-standard residues stand in square brackets, D forms with d. Residues, ends and D or L forms follow the SMILES beside them. *: point of attachment. Tle = CC(C)(C)[C@H](N)C(=O)O; X1 = C[C@@H](CCCCCN)C(=O)*

`CC(C)C[C@H](NC(=O)[C@@H](NC(=O)[C@H](Cc1ccc(O)cc1)NC(=O)[C@@H]1CCCN1C(=O)[C@H](CCCNC(=N)N)NC(=O)[C@@H](C)CCCCCN)C(C)(C)C)C(=O)O` [ABS201, hLys-Arg-Pro-Tyr-t-Leu-Leu] (X1-RPY[Tle]L-OH): the “ED50 inhibition of amphetamine-induced hyperlocomotion” value with rats (IP) is listed as “about 1 mg/kg”. The “effect of repeated daily dosing on attenuation of d-amphetamine induced hyperlocomotion” value in the experiment on rats (IP 5 mg/kg daily, 5 days) is “had no effect”. Further, in the experiment on rats (IP, all dose groups), the “spontaneous locomotor activity, drug phase” value is “responded significantly lower than saline during the drug phase”. For the same compound, the “effect on d-amphetamine induced hyperactivity” value in the experiment on rats (IP, all doses) is “significantly reduced hyperlocomotion for all doses tested”. In addition, the “spontaneous locomotor activity, drug phase” value with rats (oral 10, 20, 30 mg/kg) is “only the 10 and 30 mg/kg doses reduced spontaneous locomotor activity”. In the experiment on rats (oral 10-30 mg/kg, time points 140-180), the “effect on d-amphetamine induced hyperlocomotion” value is “reduced locomotor activity”. At NTR-1, the EC50 came to 3.92 ± 0.01 nM, the IC50 was determined as 11.2 ± 0.3 nM, the “affinity for the target receptor (NTR1)” value was “nM affinity” and the “binds less effectively than its parent” value is reported as 50 fold.

By EC50 is commonly meant the concentration needed to bring the measured effect to its halfway point. For orientation: IC50 means the midpoint of a concentration-inhibition curve. Read a low IC50 as greater potency in that assay.
